Experimental data reported in ChEMBL document CHEMBL1208668, “Synthesis and biological evaluation of novel spiro 6-methoxytetralin-1,3'-pyrrolidine based organoselenocyanates against cadmium-induced oxidative and hepatic damage in mice” (2010).
Activity calls are given as the source filed them. No cut-off for these calls is given here.

Key:
[1] = test system: Mus musculus; experiment: Hepatoprotective activity against cadmium-induced oxidative damage in Swiss albino mouse assessed as inhibition of cadmium-induced SOD activity depletion at 3 mg/kg, po administered for 20 days concomitantly with cadmium; format: functional, organism-based; set-up: dose 3 mg/kg
[2] = test system: Mus musculus; experiment: Hepatoprotective activity against cadmium-induced oxidative damage in Swiss albino mouse assessed as inhibition of cadmium-induced GST activity depletion at 3 mg/kg, po administered 7 days prior to first cadmium treatment followed by administration for 20 days concomitantly with cadmium; format: functional, organism-based; set-up: dose 3 mg/kg
[3] = test system: Mus musculus; experiment: Hepatoprotective activity against cadmium-induced hepatic damage in Swiss albino mouse assessed as inhibition of cadmium-induced elevation in serum ALT level at 3 mg/kg, po administered 7 days prior to first cadmium treatment followed by administration for 20 days concomitantly with cadmium; format: functional, organism-based; set-up: dose 3 mg/kg
[4] = test system: Mus musculus; experiment: Hepatoprotective activity against cadmium-induced oxidative damage in Swiss albino mouse assessed as inhibition of cadmium-induced GST activity depletion at 3 mg/kg, po administered for 20 days concomitantly with cadmium; format: functional, organism-based; set-up: dose 3 mg/kg
[5] = test system: Mus musculus; experiment: Hepatoprotective activity against cadmium-induced hepatic damage in Swiss albino mouse assessed as ratio of liver weight to body weight at 3 mg/kg, po administered 7 days prior to first cadmium treatment followed by administration for 20 days concomitantly with cadmium; format: functional
[6] = test system: Mus musculus; experiment: Hepatoprotective activity against cadmium-induced hepatic damage in Swiss albino mouse assessed as inhibition of cadmium-induced elevation in serum AST level at 3 mg/kg, po administered 7 days prior to first cadmium treatment followed by administration for 20 days concomitantly with cadmium; format: functional, organism-based; set-up: dose 3 mg/kg
[7] = test system: Mus musculus; experiment: Hepatoprotective activity against cadmium-induced oxidative damage in Swiss albino mouse assessed as inhibition of cadmium-induced SOD activity depletion at 3 mg/kg, po administered 7 days prior to first cadmium treatment followed by administration for 20 days concomitantly with cadmium; format: functional, organism-based; set-up: dose 3 mg/kg
[8] = test system: Mus musculus; experiment: Hepatoprotective activity against cadmium-induced hepatic damage in Swiss albino mouse assessed as inhibition of cadmium-induced LPO level at 3 mg/kg, po administered 7 days prior to first cadmium treatment followed by administration for 20 days concomitantly with cadmium; format: functional, organism-based; set-up: dose 3 mg/kg
[9] = test system: Mus musculus; experiment: Renoprotective activity against cadmium-induced renal damage in Swiss albino mouse assessed as inhibition of cadmium-induced creatinine level change at 3 mg/kg, po administered 7 days prior to first cadmium treatment followed by administration for 20 days concomitantly with cadmium; format: functional, organism-based; set-up: dose 3 mg/kg
[10] = test system: Mus musculus; experiment: Hepatoprotective activity against cadmium-induced hepatic damage in Swiss albino mouse assessed as inhibition of cadmium-induced LPO level at 3 mg/kg, po administered for 20 days concomitantly with cadmium bt TBARS assay; format: functional, organism-based; set-up: dose 3 mg/kg
[11] = test system: Mus musculus; experiment: Hepatoprotective activity against cadmium-induced hepatic damage in Swiss albino mouse assessed as inhibition of cadmium-induced elevation in serum AST level at 3 mg/kg, po administered for 20 days concomitantly with cadmium; format: functional, organism-based; set-up: dose 3 mg/kg
[12] = test system: Mus musculus; experiment: Renoprotective activity against cadmium-induced renal damage in Swiss albino mouse assessed as inhibition of cadmium-induced creatinine level change at 3 mg/kg, po administered for 20 days concomitantly with cadmium; format: functional, organism-based; set-up: dose 3 mg/kg
[13] = test system: Mus musculus; experiment: Renoprotective activity against cadmium-induced renal damage in Swiss albino mouse assessed as inhibition of cadmium-induced BUN level […] at 3 mg/kg, po administered 7 days prior to first cadmium treatment followed by administration for 20 days concomitantly with cadmium; format: functional, organism-based; set-up: dose 3 mg/kg
[14] = test system: Mus musculus; experiment: Hepatoprotective activity against cadmium-induced hepatic damage in Swiss albino mouse assessed as ratio of liver weight to body weight at 3 mg/kg, po administered for 20 days concomitantly with cadmium; format: functional
[15] = test system: Mus musculus; experiment: Hepatoprotective activity against cadmium-induced oxidative damage in Swiss albino mouse assessed as inhibition of cadmium-induced CAT activity depletion at 3 mg/kg, po administered for 20 days concomitantly with cadmium; format: functional, organism-based; set-up: dose 3 mg/kg
[16] = test system: Mus musculus; experiment: Hepatoprotective activity against cadmium-induced oxidative damage in Swiss albino mouse assessed as inhibition of cadmium-induced GSH depletion at 3 mg/kg, po administered for 20 days concomitantly with cadmium; format: functional, organism-based; set-up: dose 3 mg/kg
[17] = test system: Mus musculus; experiment: Renoprotective activity against cadmium-induced renal damage in Swiss albino mouse assessed as inhibition of cadmium-induced BUN level […] at 3 mg/kg, po administered for 20 days concomitantly with cadmium; format: functional, organism-based; set-up: dose 3 mg/kg
[18] = test system: Mus musculus; experiment: Hepatoprotective activity against cadmium-induced oxidative damage in Swiss albino mouse assessed as inhibition of cadmium-induced GSH depletion at 3 mg/kg, po administered 7 days prior to first cadmium treatment followed by administration for 20 days concomitantly with cadmium; format: functional, organism-based; set-up: dose 3 mg/kg
[19] = test system: Mus musculus; experiment: Hepatoprotective activity against cadmium-induced oxidative damage in Swiss albino mouse assessed as inhibition of cadmium-induced CAT activity depletion at 3 mg/kg, po administered 7 days prior to first cadmium treatment followed by administration for 20 days concomitantly with cadmium; format: functional, organism-based; set-up: dose 3 mg/kg
[20] = test system: Mus musculus; experiment: Hepatoprotective activity against cadmium-induced hepatic damage in Swiss albino mouse assessed as inhibition of cadmium-induced elevation in serum ALT level at 3 mg/kg, po administered for 20 days concomitantly with cadmium; format: functional, organism-based; set-up: dose 3 mg/kg
[21] = test system: Mus musculus; experiment: Hepatoprotective activity against cadmium-induced hepatic damage in Swiss albino mouse assessed as inhibition of cadmium-induced liver necrosis and inflammation at 3 mg/kg, po administered for 20 days concomitantly with cadmium; format: functional, organism-based; set-up: dose 3 mg/kg
[22] = test system: Mus musculus; experiment: Hepatoprotective activity against cadmium-induced hepatic damage in Swiss albino mouse assessed as inhibition of cadmium-induced liver necrosis and inflammation at 3 mg/kg, po administered 7 days prior to first cadmium treatment followed by administration for 20 days concomitantly with cadmium; format: functional, organism-based; set-up: dose 3 mg/kg

Structure (SMILES)	inhibition [1]	inhibition [2]	inhibition [3]	inhibition [4]	Ratio [5]	inhibition [6]	inhibition [7]	inhibition [8]	inhibition [9]	inhibition [10]	inhibition [11]	inhibition [12]	inhibition [13]	Ratio [14]	inhibition [15]	inhibition [16]	inhibition [17]	inhibition [18]	inhibition [19]	inhibition [20]	other results
COc1ccc2c(c1)CCCC21CC(=O)N(CCCC[Se]C#N)C1=O (stereo not drawn)	inactive	Active	Active	Active	0.0466	Active	inactive	Active	inactive	Active	Active	inactive	Active	0.0487	Active	Active	Active	Active	Active	Active	
COc1ccc2c(c1)CCCC21CC(=O)N(CC[Se]C#N)C1=O (stereo not drawn)	inactive	Active	inactive	Active		Active	inactive	Active	inactive	Active	Active	inactive	Active	0.0525		inactive		inactive		inactive	
COc1ccc2c(c1)CCCC21CC(=O)N(CCC[Se]C#N)C1=O (stereo not drawn)	inactive	Active	inactive	Active	0.0474	Active	inactive	Active	inactive	Active	Active	inactive	Active	0.0483						inactive	
COc1ccc2c(c1)CCCC21CC(=O)N(CCCCC[Se]C#N)C1=O (stereo not drawn)	inactive	Active	Active	Active	0.0428	Active	inactive	Active	inactive	Active	Active	inactive	Active	0.047	Active	Active	Active	Active	Active	Active	inhibition [21]: Active; inhibition [22]: Active
